# Assay results: PubChem BioAssay AID1259407 (Chemical Carcinogenesis Research Information System (CCRIS), 2018)
# Calls of active or inactive are those of the source. The rule behind the calls is not given here.
# System: CCRIS mutagenicity, Ames/micronucleus/aberration tests
# Assay: CCRIS mutagenicity studies
# [1] = Test System: AMES SALMONELLA TYPHIMURIUM, Strain/Indicator: TA98, Metabolic Activation: NONE, Method: STANDARD PLATE
# [2] = Test System: AMES SALMONELLA TYPHIMURIUM, Strain/Indicator: TA98, Metabolic Activation: RAT, LIVER, S-9, AROCLOR 1254, Method: STANDARD PLATE
# [3] = Test System: AMES SALMONELLA TYPHIMURIUM, Strain/Indicator: TA100, Metabolic Activation: NONE, Method: STANDARD PLATE
# [4] = Test System: AMES SALMONELLA TYPHIMURIUM, Strain/Indicator: TA100, Metabolic Activation: RAT, LIVER, S-9, AROCLOR 1254, Method: STANDARD PLATE
# [5] = Test System: AMES SALMONELLA TYPHIMURIUM, Strain/Indicator: TA102, Metabolic Activation: NONE, Method: STANDARD PLATE
# [6] = Test System: AMES SALMONELLA TYPHIMURIUM, Strain/Indicator: TA1535, Metabolic Activation: NONE, Method: STANDARD PLATE
# [7] = Test System: AMES SALMONELLA TYPHIMURIUM, Strain/Indicator: TA1535, Metabolic Activation: RAT, LIVER, S-9, AROCLOR 1254, Method: STANDARD PLATE
# [8] = Test System: AMES SALMONELLA TYPHIMURIUM, Strain/Indicator: TA98, Metabolic Activation: NONE, Method: PREINCUBATION
smiles,measurement,setting,value
C[C@]12CC[C@H](OC(=O)Cc3ccc(N(CCCl)CCCl)cc3)C[C@@H]1CC[C@@H]1[C@@H]2CC[C@]2(C)NC(=O)CC[C@@H]12,mutagenic call,[1],inactive; negative
same,mutagenic call,[2],inactive; negative
same,mutagenic call,[3],active; positive
same,mutagenic call,[4],active; positive
same,mutagenic call,[5],active; positive
same,mutagenic call,"Test System: AMES SALMONELLA TYPHIMURIUM, Strain/Indicator: TA102, Metabolic Activation: RAT, LIVER, S-9, AROCLOR 1254, Method: STANDARD PLATE",active; positive
same,mutagenic call,"Test System: AMES SALMONELLA TYPHIMURIUM, Strain/Indicator: TA104, Metabolic Activation: NONE, Method: STANDARD PLATE",inactive; negative
same,mutagenic call,"Test System: AMES SALMONELLA TYPHIMURIUM, Strain/Indicator: TA104, Metabolic Activation: RAT, LIVER, S-9, AROCLOR 1254, Method: STANDARD PLATE",inactive; negative
same,mutagenic call,[6],active; positive
same,mutagenic call,[7],active; positive
N=C(N)c1ccccc1,mutagenic call,"Test System: AMES SALMONELLA TYPHIMURIUM, Strain/Indicator: TA98, Metabolic Activation: CO631 CELLS, Method: PREINCUBATION",inactive; negative
same,mutagenic call,[8],inactive; negative
same,mutagenic call,"Test System: AMES SALMONELLA TYPHIMURIUM, Strain/Indicator: TA98, Metabolic Activation: RABBIT, LIVER, S-9, Method: PREINCUBATION",inactive; negative
same,mutagenic call,"Test System: AMES SALMONELLA TYPHIMURIUM, Strain/Indicator: TA98, Metabolic Activation: RAT HEPATOCYTES, Method: PREINCUBATION",inactive; negative
same,mutagenic call,"Test System: AMES SALMONELLA TYPHIMURIUM, Strain/Indicator: TA98, Metabolic Activation: RAT, LIVER, S-9, AROCLOR 1254, ATP, Method: PREINCUBATION",inactive; negative
same,mutagenic call,"Test System: AMES SALMONELLA TYPHIMURIUM, Strain/Indicator: TA98, Metabolic Activation: RAT, LIVER, S-9, AROCLOR 1254, Method: PREINCUBATION",inactive; negative
same,mutagenic call,"Test System: AMES SALMONELLA TYPHIMURIUM, Strain/Indicator: TA100, Metabolic Activation: RABBIT, LIVER, S-9, Method: PREINCUBATION",inactive; negative
same,mutagenic call,"Test System: AMES SALMONELLA TYPHIMURIUM, Strain/Indicator: TA100, Metabolic Activation: RAT HEPATOCYTES, Method: PREINCUBATION",inactive; negative
same,mutagenic call,"Test System: AMES SALMONELLA TYPHIMURIUM, Strain/Indicator: TA100, Metabolic Activation: RAT, LIVER, S-9, AROCLOR 1254, ATP, Method: PREINCUBATION",inactive; negative
same,mutagenic call,"Test System: AMES SALMONELLA TYPHIMURIUM, Strain/Indicator: TA100, Metabolic Activation: RAT, LIVER, S-9, AROCLOR 1254, Method: PREINCUBATION",inactive; negative
CC(C)(C)C1CCC2(CC1)CO2 (stereo not given),mutagenic call,[3],inactive; negative
O=C1c2ccccc2C(=O)c2c1cc(O[C@H]1O[C@H](CO[C@@H]3OC[C@@H](O)[C@H](O)[C@H]3O)[C@@H](O)[C@H](O)[C@H]1O)c(CO)c2O,mutagenic call,"Test System: AMES SALMONELLA TYPHIMURIUM, Strain/Indicator: TA98, Metabolic Activation: NONE, Method: PREINCUBATION (PH 6.5 OR 7.4)",inactive; negative
same,mutagenic call,"Test System: AMES SALMONELLA TYPHIMURIUM, Strain/Indicator: TA98, Metabolic Activation: RAT, LIVER, S-9, SODIUM BARBITAL AND BETA-NAPHTHOFLAVONE, Method: PREINCUBATION (PH 6.5 OR 7.4)",inactive; negative
same,mutagenic call,"Test System: AMES SALMONELLA TYPHIMURIUM, Strain/Indicator: TA100, Metabolic Activation: NONE, Method: PREINCUBATION (PH 6.5 OR 7.4)",active; positive
same,mutagenic call,"Test System: AMES SALMONELLA TYPHIMURIUM, Strain/Indicator: TA100, Metabolic Activation: RAT, LIVER, S-9, SODIUM BARBITAL AND BETA-NAPHTHOFLAVONE, Method: PREINCUBATION",inactive; negative
[O]=[Cd],mutagenic call,"End Point: In vivo micronucleus, Test System: Peripheral blood lymphocytes, Species: Dog, Strain/Sex: Mongrel/Male, Female, Route: Oral",active; positive in group 2
same,mutagenic call,"Test System: AMES SALMONELLA TYPHIMURIUM, Strain/Indicator: TA98, Metabolic Activation: HAMSTER, LIVER, S-9, AROCLOR 1254 (10%), Method: PREINCUBATION",inactive; negative
same,mutagenic call,[8],inactive; negative
same,mutagenic call,"Test System: AMES SALMONELLA TYPHIMURIUM, Strain/Indicator: TA98, Metabolic Activation: RAT, LIVER, S-9, AROCLOR 1254 (10%), Method: PREINCUBATION",inactive; negative
same,mutagenic call,"Test System: AMES SALMONELLA TYPHIMURIUM, Strain/Indicator: TA100, Metabolic Activation: HAMSTER, LIVER, S-9, AROCLOR 1254 (10%), Method: PREINCUBATION",inactive; negative
same,mutagenic call,"Test System: AMES SALMONELLA TYPHIMURIUM, Strain/Indicator: TA100, Metabolic Activation: NONE, Method: PREINCUBATION",inactive; negative
same,mutagenic call,"Test System: AMES SALMONELLA TYPHIMURIUM, Strain/Indicator: TA100, Metabolic Activation: RAT, LIVER, S-9, AROCLOR 1254 (10%), Method: PREINCUBATION",inactive; negative
same,mutagenic call,"Test System: AMES SALMONELLA TYPHIMURIUM, Strain/Indicator: TA1535, Metabolic Activation: HAMSTER, LIVER, S-9, AROCLOR 1254 (10%), Method: PREINCUBATION",inactive; negative
same,mutagenic call,"Test System: AMES SALMONELLA TYPHIMURIUM, Strain/Indicator: TA1535, Metabolic Activation: NONE, Method: PREINCUBATION",inactive; negative
same,mutagenic call,"Test System: AMES SALMONELLA TYPHIMURIUM, Strain/Indicator: TA1535, Metabolic Activation: RAT, LIVER, S-9, AROCLOR 1254 (10%), Method: PREINCUBATION",inactive; negative
same,mutagenic call,"Test System: AMES SALMONELLA TYPHIMURIUM, Strain/Indicator: TA1537, Metabolic Activation: HAMSTER, LIVER, S-9, AROCLOR 1254 (10%), Method: PREINCUBATION",inactive; negative
same,mutagenic call,"Test System: AMES SALMONELLA TYPHIMURIUM, Strain/Indicator: TA1537, Metabolic Activation: NONE, Method: PREINCUBATION",inactive; negative
same,mutagenic call,"Test System: AMES SALMONELLA TYPHIMURIUM, Strain/Indicator: TA1537, Metabolic Activation: RAT, LIVER, S-9, AROCLOR 1254 (10%), Method: PREINCUBATION",inactive; negative
CO[C@H](C)[C@](O)(C(=O)OCC1=CCN2CC[C@H](O)[C@@H]12)C(C)C,mutagenic call,"Test System: AMES SALMONELLA TYPHIMURIUM, Strain/Indicator: TA100, Metabolic Activation: HAMSTER, LIVER, S-9, PCB, Method: PREINCUBATION",inactive; negative; dose related trend; by authors criteria results are positive
same,mutagenic call,"Test System: AMES SALMONELLA TYPHIMURIUM, Strain/Indicator: TA100, Metabolic Activation: RAT, LIVER, S-9, PCB, Method: PREINCUBATION",inactive; negative; dose related trend; by authors criteria results are positive
O=C1C=Cc2c(ccc3c2ccc2ccccc23)C1=O,mutagenic call,[1],inactive; negative
same,mutagenic call,[4],inactive; negative
c1cc[c]([Sn]([c]2ccccc2)([c]2ccccc2)[c]2ccccc2)cc1,mutagenic call,"Test System: AMES SALMONELLA TYPHIMURIUM, Strain/Indicator: TA98, Metabolic Activation: NONE, Method: SUSPENSION/PLATE",inactive; negative
same,mutagenic call,"Test System: AMES SALMONELLA TYPHIMURIUM, Strain/Indicator: TA100, Metabolic Activation: NONE, Method: SUSPENSION/PLATE",inactive; negative
O=C(O)CC[C@H](NC(=O)COc1cc(Cl)c(Cl)cc1Cl)C(=O)O,mutagenic call,"Test System: AMES SALMONELLA TYPHIMURIUM, Strain/Indicator: TA97, Metabolic Activation: NONE, Method: STANDARD PLATE",inactive; negative
same,mutagenic call,"Test System: AMES SALMONELLA TYPHIMURIUM, Strain/Indicator: TA97, Metabolic Activation: RAT, LIVER, S-9, AROCLOR 1254, Method: STANDARD PLATE",inactive; negative
same,mutagenic call,[1],inactive; negative
same,mutagenic call,[2],inactive; negative
same,mutagenic call,[3],inactive; negative
same,mutagenic call,[4],inactive; negative
same,mutagenic call,[6],inactive; negative
same,mutagenic call,[7],inactive; negative
same,mutagenic call,"Test System: AMES SALMONELLA TYPHIMURIUM, Strain/Indicator: TA1538, Metabolic Activation: NONE, Method: STANDARD PLATE",inactive; negative
same,mutagenic call,"Test System: AMES SALMONELLA TYPHIMURIUM, Strain/Indicator: TA1538, Metabolic Activation: RAT, LIVER, S-9, AROCLOR 1254, Method: STANDARD PLATE",inactive; negative
COc1cccc2c1C(=O)c1c(O)c3c(c(O)c1C2=O)C[C@@](O)(C(C)=O)C[C@@H]3O[C@@H]1C[C@@H](N(C)C)[C@@H](O)[C@@H](C)O1,mutagenic call,[5],active; positive
